Data published in US8278436B2, “Glycosylated warfarin analogs and uses thereof” (priority 2008, dated 2012).
Where two headings read alike, the source gives them in different places.

Key:
Format in all cases: cell-based
[1] = tested on: HCT-15 human colorectal adenocarcinoma cells; experiment: cell proliferation assay, HCT-15; settings: Table 3 summary of most active compounds, IC50, read-out: HCT15 Colorectal
From the text: (§1) In this Example, the warfarin neoglycosides of the invention were screened for anti-tumor activity in cell proliferation assays using the following tumor cells lines: A549—human lung adenocarcinoma; H1299—human lung adenocarcinoma (p53 null); HCT-15—human colorectal adenocarcinoma; HT-29—human colorectal adenocarcinoma; MCF7—human breast adenocarcinoma; NCI-H460—human lung adenocarcinoma; SF-268—human CNS adenocarcinoma; and SKOV-3—human ovarian adenocarcinoma.
(§2) All cell lines were maintained as previously reported (see Langenhan, J. M.; Peters, N. R.; Guzei, I. A.; Hoffmann, F. M.; Thorson, J. S. Proc. Natl. Acad. Sci. USA 2005, 102, 12305-12310, which is incorporated by reference herein). Cells were harvested using 0.25% trypsin and 0.1% EDTA and counted in a Cellometer Auto T4 cell counter (Nexcelom, Inc.) prior to dilution for assay plating. Cells were plated at a denity of 500 cells per well in 50 μL volumes in 384-well clear-bottom tissue culture plates (Corning-Costar, Inc.).
(§3) Compounds were added from the 384-well compound stock plates at a 1:100 dilution using a Biomek FX liquid handler equipped with a 384-channel head (Beckman Coulter, Inc.). The plates were incubated for 7 days at 37° C. in a 5% CO2 atmosphere prior to performing the assays. Calcein AM (acetoxymethyl ester) reagent and EthD-1 (30 μL, 10 μM CAM and 100 μM EthD-1) was added and the cells were incubated for 30 min at 37° C. […] resulting from incubation with Calcein AM and EthD-1 was read using a Safire-2 microplate reader at the appropriate wavelengths. To lyse the cells, 15 μL of CellTiter-Glo reagent (Promega Corporation, Inc.) was added and the cells were incubated for 10 min at room temperature with gentle agitation. The luminescence of each plate was re-read to confirm the observed inhibition.
(§4) IC50s for cell proliferation assays were determined for Calcein AM, the ratio of live/dead cells (Calcein AM/EthD-1), and CellTiter-Glo using XLfit 4.0 as previously described (see Langenhan, J. M.; Peters, N. R.; Guzei, I. A.; Hoffmann, F. M.; Thorson, J. S. Proc. Natl. Acad. Sci. USA 2005, 102, 12305-12310, which is incorporated by reference herein). The IC50 determined using the best fit curve for dosage response from any of the 3 assays is reported as the final IC50. The best fit curve is defined as the curve with the lowest standard error.

[2] = tested on: HT-29 human colorectal adenocarcinoma cells; experiment: cell proliferation assay, HT-29; settings: Table 3 summary of most active compounds, IC50, read-out: H729 Colorectal
From the text: as §1, §2, §3, §4

[3] = tested on: NCI-H460 human lung adenocarcinoma cells; experiment: cell proliferation assay, NCI-H460; settings: Table 3 summary of most active compounds
From the text: as §1, §2, §3, §4

[4] = tested on: SKOV-3 human ovarian adenocarcinoma cells; experiment: cell proliferation assay, SKOV-3; settings: Table 3 summary of most active compounds, read-out: SKOV3 Ovarian
From the text: as §1, §2, §3, §4

[5] = tested on: NCI/ADR-RES; experiment: cell proliferation assay, NCI/ADR-RES; settings: Table 3 summary of most active compounds
Protocol: as §2, §3
as §4, with “IC50.” for “IC50. The best fit curve is defined as the curve with the lowest standard error.”

[6] = tested on: A549 human lung adenocarcinoma cells; experiment: cell proliferation assay, A549; settings: Table 3 summary of most active compounds, read-out: A549 Lung (+p53)
From the text: as §1, §2, §3, §4

[7] = tested on: H1299 human lung adenocarcinoma (p53 null) cells; experiment: cell proliferation assay, H1299; settings: Table 3 summary of most active compounds
From the text: as §1, §2, §3
as §4, with “IC50.” for “IC50. The best fit curve is defined as the curve with the lowest standard error.”

[8] = tested on: MCF7 human breast adenocarcinoma cells; experiment: cell proliferation assay, MCF7; settings: Table 3 summary of most active compounds
From the text: as §1, §2, §3
as §4, with “IC50.” for “IC50. The best fit curve is defined as the curve with the lowest standard error.”

[9] = tested on: SF-268 human CNS adenocarcinoma cells; experiment: cell proliferation assay, SF-268; settings: Table 3 summary of most active compounds, IC50, read-out: SF268 Giloblast
From the text: as §1, §2, §3
as §4, with “IC50.” for “IC50. The best fit curve is defined as the curve with the lowest standard error.”

Compound CON(C(C)CC(c1ccccc1)c1c(O)c2ccccc2oc1=O)C1OC(C)C(O)C(O)C1O (mixture of isomers) [WARF Analog 12] has an IC50 ([1]; listed as L-fucose) of 9 µM, an IC50 ([2]; listed as L-fucose) of 80 µM and an IC50 [3] greater than 100 µM. The IC50 ([4]; listed as L-fucose) was 81 µM, the IC50 [5] was greater than 100 µM and the IC50 [6] was greater than 100 µM. The IC50 [7] was greater than 100 µM, the IC50 [8] was greater than 100 µM and the IC50 ([9]; listed as L-fucose) was 89 µM.

For CON(C(C)CC(c1ccccc1)c1c(O)c2ccccc2oc1=O)C1C[C@@H](O)[C@@H](O)CO1 (stereo partly drawn) [WARF Analog 10], the IC50 [1] was 12 µM, the IC50 [2] was 88 µM and the IC50 [3] was greater than 100 µM. The IC50 [4] was greater than 100 µM, the IC50 [5] was 92 µM and the IC50 [6] was greater than 100 µM. The IC50 [7] was 77 µM, the IC50 [8] was 66 µM and the IC50 [9] was greater than 100 µM.

CON(C(C)CC(c1ccccc1)c1c(O)c2ccccc2oc1=O)C1CC(O)C(O)CO1 (mixture of isomers) [WARF Analog 11] was tested, and the IC50 [1] was 13 µM, the IC50 [2] was greater than 100 µM and the IC50 [3] was greater than 100 µM. It also gave an IC50 [4] greater than 100 µM, an IC50 [5] greater than 100 µM and an IC50 [6] greater than 100 µM. It also gave an IC50 [7] of 92 µM, an IC50 [8] of 78 µM and an IC50 [9] greater than 100 µM.

For CON(C(C)CC(c1ccccc1)c1c(O)c2ccccc2oc1=O)C1OCC(O)C(O)C1O (mixture of isomers) [WARF Analog 9], the IC50 ([1]; listed as D-xylose) was 11 µM, the IC50 ([2]; listed as D-xylose) was 43 µM and the IC50 ([3]; listed as D-xylose) was 99 µM. It also gave an IC50 ([4]; listed as D-xylose) of 52 µM, an IC50 ([5]; listed as D-xylose) of 38 µM and an IC50 ([6]; listed as D-xylose) of 40 µM. For the same compound, the IC50 ([7]; listed as D-xylose) was 27 µM, the IC50 ([8]; listed as D-xylose) was 12 µM and the IC50 ([9]; listed as D-xylose) was 37 µM.
